Measured values from patent US8173682B2, “Substituted pyridones as inhibitors of poly(ADP-ribose) polymerase (PARP)” (Aventis Pharmaceuticals Inc., priority 2004, dated 2012).
Counter-ions that a name gives are not always drawn.

biological target: recombinantly expressed human PARP-1 enzyme (Homo sapiens, UniProt P09874); test: PARP enzyme assay, Method B (tritium-labeled NAD incorporation); type: biochemical; conditions: Method B; 200 μM NAD, room temperature 1 hour, pH 8.0; read-out: IC50 (μM)/Method B
Sequence (P09874 whole entry): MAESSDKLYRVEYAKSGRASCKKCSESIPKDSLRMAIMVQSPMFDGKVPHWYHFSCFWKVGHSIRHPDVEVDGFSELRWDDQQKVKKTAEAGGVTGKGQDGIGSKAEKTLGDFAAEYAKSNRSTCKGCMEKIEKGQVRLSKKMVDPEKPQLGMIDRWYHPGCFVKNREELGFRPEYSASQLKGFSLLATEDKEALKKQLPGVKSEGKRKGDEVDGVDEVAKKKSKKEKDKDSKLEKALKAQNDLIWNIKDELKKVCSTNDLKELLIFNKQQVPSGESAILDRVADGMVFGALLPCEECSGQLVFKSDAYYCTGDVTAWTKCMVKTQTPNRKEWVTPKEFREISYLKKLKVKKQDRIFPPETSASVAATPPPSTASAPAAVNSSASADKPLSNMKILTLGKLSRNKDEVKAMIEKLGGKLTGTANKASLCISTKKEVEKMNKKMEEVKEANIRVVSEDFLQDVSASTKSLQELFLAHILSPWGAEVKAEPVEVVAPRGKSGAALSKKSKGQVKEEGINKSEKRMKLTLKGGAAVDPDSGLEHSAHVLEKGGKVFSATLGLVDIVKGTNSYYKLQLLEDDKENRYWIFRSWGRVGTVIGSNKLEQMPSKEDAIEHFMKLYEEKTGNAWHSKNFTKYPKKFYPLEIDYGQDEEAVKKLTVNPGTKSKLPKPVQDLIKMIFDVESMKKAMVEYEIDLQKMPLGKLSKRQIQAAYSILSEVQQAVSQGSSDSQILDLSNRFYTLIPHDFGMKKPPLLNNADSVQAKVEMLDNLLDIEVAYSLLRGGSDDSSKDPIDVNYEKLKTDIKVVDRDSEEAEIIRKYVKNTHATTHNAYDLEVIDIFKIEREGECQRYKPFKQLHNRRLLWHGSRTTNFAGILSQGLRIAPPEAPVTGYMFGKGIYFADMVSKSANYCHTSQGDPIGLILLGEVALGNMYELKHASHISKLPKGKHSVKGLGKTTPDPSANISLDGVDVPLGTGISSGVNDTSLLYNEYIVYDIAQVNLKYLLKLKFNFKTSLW
Description: Method B: PARP Enzyme Assay:
The IC50 is determined in this method by incubating the substances to be tested with the DNA-activated, recombinantly expressed and purified PARP-1 enzyme. Specifically, various concentrations of the test substance are incubated in 50 μL of reaction solution, which contains 50 mM Tris, 5 mM MgCl2, 1 mM DTT, 200 μM NAD, 0.1 m Ci/mL tritium-labeled NAD, 0.1 mg/mL DNA, 0.1 mg/mL histones, 2 μg/mL recombinantly expressed human PARP-1 enzyme, pH=8.0, at room temperature for 1 hour. The reaction is stopped by adding 150 μL of 20% trichloroacetic acid, and the radiolabeled protein constituents are precipitated. After incubation on ice for 10 minutes, the labeled, insoluble constituents are separated off through a glass fiber filter and, after washing with 20% trichloroacetic acid three times, the radioactivity incorporated by the PARP-1 enzyme is measured by radioluminescence. Consideration of the incorporation rates determined in this way as a function of the concentration of the test substance results in IC50 as the concentration of the test substance which reduces the incorporation rate to half the maximum value attainable (incubation without inhibitor).
The IC50 (fifty percent inhibitory concentration of the test substance in a solution—expressed at micromolar (μM) concentration) measured in accordance with these procedures for the compounds of this invention are summarized in Table 1.

| SMILES | IC50 |
| --- | --- |
| CCc1cc(-c2ccc(S(=O)(=O)NCc3ccccn3)s2)c(C)[nH]c1=O [Example 31, 5-(5-Ethyl-2-methyl-6-oxo-1,6-dihydropyridin-3-yl)thiophene-2-sulfonic acid (pyridin-2-yl)methylamide hydrochloride] | 0.44 µM |
| CCc1cc(-c2ccc(C=NO)o2)c(C)[nH]c1=O [Example 199A, 5-(5-Ethyl-2-methyl-6-oxo-1,6-dihydro-pyridin-3-yl)-furan-2-carbaldehyde oxime] | 0.51 µM |
| CCc1cc(-c2coc(CNCc3ccccn3)c2)c(C)[nH]c1=O [Example 182F, 3-Ethyl-6-methyl-5-(5-{[(pyridin-2-ylmethyl)-amino]-methyl}-furan-3-yl)-1H-pyridin-2-one] | 1.62 µM |
| CCc1cc(-c2cccc(CN3CCN(C(C)=O)CC3)n2)c(C)[nH]c1=O [Example 182J, 6-(4-Acetyl-piperazin-1-ylmethyl)-5′-ethyl-2′-methyl-1′H-[2,3′]bipyridinyl-6′-one] | 14.6 µM |
| CCc1cc(-c2cncc(C(=O)NCc3cccc(OC)c3)c2)c(C)[nH]c1=O [Example 263, 5′-Ethyl-2′-methyl-6′-oxo-1′,6′-dihydro-[3,3′]bipyridinyl-5-carboxylic acid 3-methoxy-benzylamide] | 2.67 µM |
| CCc1cc(-c2cccc(CN3CCC(N4CCCC4)CC3)n2)c(C)[nH]c1=O [Example 182K, 5′-Ethyl-2′-methyl-6-(4-pyrrolidin-1-yl-piperidin-1-ylmethyl)-1′H-[2,3′]bipyridinyl-6′-one] | 4.23 µM |
| CCc1cc(-c2cccc(CNCc3ccccn3)n2)c(C)[nH]c1=O [Example 182H, 5′-Ethyl-2′-methyl-6-{[(pyridin-2-ylmethyl)-amino]-methyl}-1′H-[2,3′]bipyridinyl-6′-one] | 1.11 µM |
| CCc1cc(-c2cncc(C(=O)NCCc3ccc(OC)cc3)c2)c(C)[nH]c1=O [Example 239, 5′-Ethyl-2′-methyl-6′-oxo-1′,6′-dihydro-[3,3′]bipyridinyl-5-carboxylic acid [2-(4-methoxy-phenyl)-ethyl]-amide] | 0.94 µM |
| CCc1cc(-c2ccc(CNC(=O)C3CCCC3)o2)c(C)[nH]c1=O [Example 269, Cyclopentanecarboxylic acid [5-(5-ethyl-2-methyl-6-oxo-1,6-dihydro-pyridin-3-yl)-furan-2-ylmethyl]-amide] | 1.97 µM |
| CCc1cc(-c2ccc(CNCc3ccccc3)o2)c(C)[nH]c1=O [Example 123, 5-[5-(Benzylamino-methyl)-furan-2-yl]-3-ethyl-6-methyl-1H-pyridin-2-one hydrochloride] | 0.58 µM |
| CCc1cc(-c2cncc(C(=O)Nc3cc(C(C)(C)C)[nH]n3)c2)c(C)[nH]c1=O [Example 258, 5′-Ethyl-2′-methyl-6′-oxo-1′,6′-dihydro-[3,3′]bipyridinyl-5-carboxylic acid (5-tert-butyl-1H-pyrazol-3-yl)-amide] | 0.62 µM |
| CCc1cc(-c2cncc(C(=O)NCc3ccc(O)c(OC)c3)c2)c(C)[nH]c1=O [Example 265, 5′-Ethyl-2′-methyl-6′-oxo-1′,6′-dihydro-[3,3′]bipyridinyl-5-carboxylic acid 4-hydroxy-3-methoxy-benzylamide] | 4.1 µM |
| CCc1cc(-c2coc(CN3CCCC3)c2)c(C)[nH]c1=O [Example 181A] | 2.17 µM |
| CCc1cc(-c2ccc(CNC(=O)c3ccc(OC)cc3)o2)c(C)[nH]c1=O [Example 272, N-[5-(5-Ethyl-2-methyl-6-oxo-1,6-dihydro-pyridin-3-yl)-furan-2-ylmethyl]-4-methoxy-benzamide] | 0.44 µM |
| CCc1cc(-c2ccc(CNC(=O)c3ccccc3)o2)c(C)[nH]c1=O [Example 271, N-[5-(5-Ethyl-2-methyl-6-oxo-1,6-dihydro-pyridin-3-yl)-furan-2-ylmethyl]-benzamide] | 0.5 µM |
| CCc1cc(-c2ccc(S(=O)(=O)N3CCN(c4ncccn4)CC3)s2)c(C)[nH]c1=O [Example 117, 3-Ethyl-6-methyl-5-[5-(4-pyrimidin-2-yl-piperazine-1-sulfonyl)thiophen-2-yl]-1H-pyridin-2-one hydrochloride] | 25.5 µM |
| CCc1cc(-c2cncc(C(=O)NCC(N)=O)c2)c(C)[nH]c1=O [Example 225, 5′-Ethyl-2′-methyl-6′-oxo-1′,6′-dihydro-[3,3′]bipyridinyl-5-carboxylic acid carbamoylmethyl-amide] | 5.5 µM |
| CCc1cc(-c2cncc(C(=O)NCCc3ccc(C(=O)O)cc3)c2)c(C)[nH]c1=O [Example 243, 4-{2-[(5′-Ethyl-2′-methyl-6′-oxo-1′,6′-dihydro-[3,3′]bipyridinyl-5-carbonyl)-amino]-ethyl}-benzoic acid] | 2.29 µM |
| CCc1cc(-c2cncc(C(=O)N3CC(O)CC3C(=O)OC)c2)c(C)[nH]c1=O (stereo not shown) [Example 231, 1-(5′-Ethyl-2′-methyl-6′-oxo-1′,6′-dihydro-[3,3′]bipyridinyl-5-carbonyl)-4-hydroxy-pyrrolidine-2-carboxylic acid methyl ester] | 14.8 µM |
| CCc1cc(-c2cncc(C(=O)NC3CCCC3)c2)c(C)[nH]c1=O [Example 219, 5′-Ethyl-2′-methyl-6′-oxo-1′,6′-dihydro-[3,3′]bipyridinyl-5-carboxylic acid cyclopentylamide] | 1.53 µM |
| CCc1cc(-c2cncc(C(=O)N(CC)CC)c2)c(C)[nH]c1=O [Example 227, 5′-Ethyl-2′-methyl-6′-oxo-1′,6′-dihydro-[3,3′]bipyridinyl-5-carboxylic acid diethylamide] | 1.98 µM |
| CCc1cc(-c2cc(C(=O)N3CCCC3)ccn2)c(C)[nH]c1=O [Example 214, 5′-Ethyl-2′-methyl-4-(pyrrolidine-1-carbonyl)-1′H-[2,3′]bipyridinyl-6′-one] | 1.4 µM |
| CCc1cc(-c2ccc(S(=O)(=O)NC(C)c3ccccn3)s2)c(C)[nH]c1=O (stereo not shown) [Example 43, 5-(5-Ethyl-2-methyl-6-oxo-1,6-dihydropyridin-3-yl)thiophene-2-sulfonic acid 1-(pyridin-2-yl)ethylamide hydrochloride] | 0.21 µM |
| CCc1cc(-c2cncc(C(=O)NCC(=O)c3ccc(OC)cc3)c2)c(C)[nH]c1=O [Example 256, 5′-Ethyl-2′-methyl-6′-oxo-1′,6′-dihydro-[3,3′]bipyridinyl-5-carboxylic acid [2-(4-methoxy-phenyl)-2-oxo-ethyl]-amide] | 0.45 µM |
| CCc1cc(-c2cncc(C(=O)NCc3ccccn3)c2)c(C)[nH]c1=O [Example 221, 5′-Ethyl-2′-methyl-6′-oxo-1′,6′-dihydro-[3,3′]bipyridinyl-5-carboxylic acid (pyridin-2-ylmethyl)-amide] | 2.04 µM |
| CCc1cc(-c2cncc(C(=O)NCCOC)c2)c(C)[nH]c1=O [Example 261, 5′-Ethyl-2′-methyl-6′-oxo-1′,6′-dihydro-[3,3′]bipyridinyl-5-carboxylic acid (2-methoxy-ethyl)-amide] | 2.07 µM |
| CCc1cc(-c2ccc(C(=O)NCc3ccccn3)cn2)c(C)[nH]c1=O [Example 208, 5′-Ethyl-2′-methyl-6′-oxo-1′,6′-dihydro-[2,3′]bipyridinyl-5-carboxylic acid (pyridin-2-ylmethyl)-amide] | 14.8 µM |
| CCc1cc(-c2ccc(CNC(C)=O)o2)c(C)[nH]c1=O [Example 274, N-[5-(5-Ethyl-2-methyl-6-oxo-1,6-dihydro-pyridin-3-yl)-furan-2-ylmethyl]-acetamide] | 0.83 µM |
